According to patent publication US9901577B2, “Oxoquinazolinyl-butanamide derivatives” (MERCK PATENT GMBH, priority 2013, dated 2018):
Read-outs that look alike come from different tables or passages of the source.

Experiments:
Tankyrase = test system: T1, Tankyrase; experiment: Measurement of cellular inhibition of Tankyrase (Axin2 level in DLD1 cells, Luminex based assay); format: cell-based; settings: read-out: EC50 [M] TNKS cellular assay; DLD1 cells, Axin2 increase, 24 hours
T1 construct: TNKS cellular assay; other: DLD1 cells, Axin2 increase, 24 hours
Protocol: Measurement of Cellular Inhibition of Tankyrase
Cells of the colon carcinoma cell line DLD1 are plated in 96 well plates with 1.5×10^4 cells per well. Next day, cells are treated with a serial dilution of test compound in seven steps as triplicates with a final DMSO concentration of 0.3%. […] The amount of isolated Axin2 protein is determined in a Luminex^200 machine (Luminex Corporation) according to the manufacturer's instruction by counting 100 events per well. […] As controls cells are treated with solvent alone (neutral control) and with a Tankyrase reference inhibitor IWR-2 (3E-06 M) which refers as control for maximum increase of Axin2. For analysis, the obtained data are normalized against the untreated solvent control and fitted for determination of the EC50 values using the Assay Explorer software (Accelrys).

PARP-1 = target: T2, PARP-1 (Homo sapiens, UniProt P09874); experiment: PARP-1 autoparsylation assay (HTRF); format: biochemical; settings: His-tagged Parp-1, autoparsylation
T2 construct: purchased Enzo Life Sciences GmbH, Lörrach, Germany
T2 sequence (P09874 whole entry): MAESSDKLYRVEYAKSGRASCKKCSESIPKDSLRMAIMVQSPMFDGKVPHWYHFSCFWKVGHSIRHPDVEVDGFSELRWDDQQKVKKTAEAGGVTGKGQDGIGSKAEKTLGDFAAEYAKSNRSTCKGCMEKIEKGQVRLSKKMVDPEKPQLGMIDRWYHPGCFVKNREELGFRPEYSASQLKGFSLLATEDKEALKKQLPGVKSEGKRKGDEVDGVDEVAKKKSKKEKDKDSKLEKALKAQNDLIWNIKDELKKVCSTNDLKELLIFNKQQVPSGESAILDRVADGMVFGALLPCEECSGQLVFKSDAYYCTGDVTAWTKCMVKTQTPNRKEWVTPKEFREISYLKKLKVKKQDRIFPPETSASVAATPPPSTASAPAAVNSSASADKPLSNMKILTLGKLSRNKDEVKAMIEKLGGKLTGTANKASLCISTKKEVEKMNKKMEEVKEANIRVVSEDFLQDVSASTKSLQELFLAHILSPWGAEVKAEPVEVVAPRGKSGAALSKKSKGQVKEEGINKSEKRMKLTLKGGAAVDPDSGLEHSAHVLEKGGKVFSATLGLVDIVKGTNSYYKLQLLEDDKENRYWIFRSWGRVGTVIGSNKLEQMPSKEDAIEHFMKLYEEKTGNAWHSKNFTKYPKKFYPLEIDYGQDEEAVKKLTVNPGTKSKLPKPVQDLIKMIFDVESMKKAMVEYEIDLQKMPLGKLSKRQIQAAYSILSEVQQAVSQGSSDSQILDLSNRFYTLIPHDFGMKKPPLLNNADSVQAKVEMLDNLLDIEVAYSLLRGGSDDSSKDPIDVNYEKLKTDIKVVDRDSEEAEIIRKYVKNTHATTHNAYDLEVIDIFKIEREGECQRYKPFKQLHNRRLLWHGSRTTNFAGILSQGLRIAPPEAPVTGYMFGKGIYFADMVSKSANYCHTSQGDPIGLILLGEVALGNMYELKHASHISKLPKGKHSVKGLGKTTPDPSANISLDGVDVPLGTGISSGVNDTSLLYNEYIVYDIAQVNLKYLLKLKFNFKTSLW

TNKS1 = target: T3, TNKS1 (Homo sapiens, UniProt O95271); experiment: TNKS1 activity ELISA (autoparsylation assay); format: biochemical
T3 construct: GST-tagged Tnks-1 (1023-1327 aa, prepared in-house); made in house
T3 sequence (O95271 1023-1327): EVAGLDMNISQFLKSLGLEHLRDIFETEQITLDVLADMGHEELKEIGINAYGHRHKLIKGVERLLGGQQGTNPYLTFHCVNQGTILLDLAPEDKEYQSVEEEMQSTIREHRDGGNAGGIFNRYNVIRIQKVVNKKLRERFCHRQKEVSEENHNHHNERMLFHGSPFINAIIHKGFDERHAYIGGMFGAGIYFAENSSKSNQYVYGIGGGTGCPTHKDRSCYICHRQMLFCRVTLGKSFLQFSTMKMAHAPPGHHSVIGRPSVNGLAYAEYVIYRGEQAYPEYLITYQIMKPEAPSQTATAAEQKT
Protocol: (§1) Description of the TNKS1 and TNKS2 ELISA Assay
(§2) Biochemical Activity Testing of TNKS 1 and 2: Activity ELISA (Autoparsylation Assay)
(§3) For analysis of autoparsylation activity of TNKS 1 and 2 an activity ELISA iss performed: In the first step GST tagged TNKS is captured on a Glutathione coated plate. Then the activity assay with biotinylated NAD is performed in the absence/presence of the compounds. During the enzymatic reaction GST tagged TNKS transfers biotinylated ADP-ribose to itself from biotinylated NAD as co-substrate. For the detection streptavidin-HRP conjugate is added that binds to the biotinylated TNKS and is thereby captured to the plates. The amount of biotinylated resp. autoparsylated TNKS is detected with a luminescence substrate for HRP. The level of the luminescence signal correlates directly with the amount of autoparsylated TNKS and therefore with activity of TNKS.
(§4) The activity ELISA is performed in 384 well Glutathione coated microtiter plates (Express capture Glutathione coated plate, Biocat, Heidelberg, Germany). The plates are pre-equilibrated with PBS. […] The plates are washed 3 times with PBS-Tween-20. The wells are blocked by incubation at room temperature for 20 minutes with 50 μl blocking buffer (PBS, 0.05% Tween-20, 0.5% BSA). Afterwards the plates are washed 3 times with PBS-Tween-20. […] The reaction is stopped by 3 times washing with PBS-Tween-20. For the detection 50 μl of 20 ng/μl Streptavidin, HRP conjugate (MoBiTec, Göttingen, Germany) in PBS/0.05% Tween-20/0.01% BSA are added and the plates are incubated for 30 minutes at room temperature. After three times washing with PBS-Tween-20 50 μl of SuperSignal ELISA Femto Maximum sensitivity substrate solution (ThermoFisherScientific (Pierce), Bonn, Germany) are added. Following a 1 minute incubation at room temperature luminescence signals are measured with an Envision multimode reader (Perkin Elmer LAS Germany GmbH) at 700 nm. The full value used is the inhibitor-free reaction. […] The inhibitory values (IC50) are determined using either the program Symyx Assay Explorer® or Condosseo® from GeneData.

TNKS2 = target: T4, TNKS2 (Homo sapiens, UniProt Q9H2K2); experiment: TNKS2 activity ELISA (autoparsylation assay); format: biochemical
T4 construct: GST-tagged Tnks-2 (873-1166 aa, prepared in-house); made in house
T4 sequence (Q9H2K2 873-1166): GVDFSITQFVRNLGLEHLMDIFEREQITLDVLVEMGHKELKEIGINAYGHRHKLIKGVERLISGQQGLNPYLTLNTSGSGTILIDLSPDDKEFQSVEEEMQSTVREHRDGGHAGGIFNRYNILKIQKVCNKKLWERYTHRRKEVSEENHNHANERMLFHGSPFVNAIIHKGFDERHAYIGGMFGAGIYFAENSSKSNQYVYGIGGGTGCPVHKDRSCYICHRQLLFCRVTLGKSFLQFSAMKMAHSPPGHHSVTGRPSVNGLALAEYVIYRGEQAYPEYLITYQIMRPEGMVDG
Protocol: as §1, §2, §3, §4

[1] = GST-tagged Tnks-1, read-out: IC50 [M] TNKS1 ELISA
[2] = GST-tagged Tnks-2, read-out: IC50 [M] TNKS2 ELISA

| Compound | EC50 (Tankyrase) [M] | IC50 (PARP-1) [nM] | IC50 (TNKS1) [M] | IC50 (TNKS2) [M] | IC50 (TNKS1; [1]) [M] | IC50 (TNKS2; [2]) [M] |
| --- | --- | --- | --- | --- | --- | --- |
| COc1ccc(C(=O)C2CCN(C(=O)CCCc3nc4ccccc4c(=O)[nH]3)CC2)cc1 [Compound A1, 2-{4-[4-(4-methoxy-benzoyl)-piperidin-1-yl]-4-oxo-butyl}-3H-quinazolin-4-one] | 1.6e-09 | 1400 | 2.3e-10 | 1.1e-10 |  |  |
| O=C(c1ccccc1)C1CCN(C(=O)CCCc2nc3ccccc3c(=O)[nH]2)CC1 [Compound A2, 2-[4-(4-benzoyl-piperidin-1-yl)-4-oxo-butyl]-3H-quinazolin-4-one] | 6.5e-08 | 730 |  |  | 7.3e-10 | 5.5e-10 |
| Cc1cc(F)cc2c(=O)[nH]c(CCCC(=O)N3CCC(C(=O)c4ccccc4)CC3)nc12 [Compound A3, 2-[4-(4-benzoyl-piperidin-1-yl)-4-oxo-butyl]-6-fluoro-8-methyl-3H-quinazolin-4-one] | 3.4e-09 | 29 |  |  | 2.2e-10 | 1.3e-10 |
| COc1ccc(C(=O)C2CCN(C(=O)CCCc3nc4c(C)cc(F)cc4c(=O)[nH]3)CC2)cc1 [Compound A4, 6-fluoro-2-{4-[4-(4-methoxy-benzoyl)-piperidin-1-yl]-4-oxo-butyl}-8-methyl-3H-quinazolin-4-one] | 5.6e-10 | 170 |  |  | 6.6e-11 | 8.9e-11 |
| COc1ccc(C(=O)C2CCN(C(=O)CCCc3nc4c(F)cc(F)cc4c(=O)[nH]3)CC2)cc1 [Compound A5, 6,8-difluoro-2-{4-[4-(4-methoxy-benzoyl)-piperidin-1-yl]-4-oxo-butyl}-3H-quinazolin-4-one] | 2.6e-09 | 780 |  |  | 8.7e-11 | 1.6e-10 |
| O=C(c1ccccc1)C1CCN(C(=O)CCCc2nc3c(F)cc(F)cc3c(=O)[nH]2)CC1 [Compound A6, 2-[4-(4-benzoyl-piperidin-1-yl)-4-oxo-butyl]-6,8-difluoro-3H-quinazolin-4-one] |  | 650 |  |  | 3.8e-10 | 9.3e-10 |
| Cc1cccc(C(=O)C2CCN(C(=O)CCCc3nc4ccccc4c(=O)[nH]3)CC2)c1 [Compound A7, 2-{4-[4-(3-methyl-benzoyl)-piperidin-1-yl]-4-oxo-butyl}-3H-quinazolin-4-one] | 2e-08 | 810 | 2.2e-10 | 1.9e-10 |  |  |
| COc1ccc(C(=O)C2CCN(C(=O)CCCc3nc4ccccc4c(=O)[nH]3)CC2)cc1F [Compound A8, 2-{4-[4-(3-fluoro-4-methoxy-benzoyl)-piperidin-1-yl]-4-oxo-butyl}-3H-quinazolin-4-one] | 3.4e-09 | 680 |  |  | 8.5e-11 | 1.5e-10 |
| COc1cccc(C(=O)C2CCN(C(=O)CCCc3nc4ccccc4c(=O)[nH]3)CC2)c1 [Compound A9, 2-{4-[4-(3-methoxy-benzoyl)-piperidin-1-yl]-4-oxo-butyl}-3H-quinazolin-4-one] | 1.9e-08 | 740 |  |  | 1.9e-10 | 3.3e-10 |
| CCn1cc(-c2ccc(C(=O)C3CCN(C(=O)CCCc4nc5ccccc5c(=O)[nH]4)CC3)cc2)cn1 [Compound A10, 2-(4-{4-[4-(1-ethyl-1H-pyrazol-4-yl)-benzoyl]-piperidin-1-yl}-4-oxo-butyl)-3H-quinazolin-4-one] | 4.9e-09 | 100 | 1e-10 | 1.6e-10 |  |  |
| COCCn1cc(-c2ccc(C(=O)C3CCN(C(=O)CCCc4nc5ccccc5c(=O)[nH]4)CC3)cc2)cn1 [Compound A11, 2-[4-(4-{4-[1-(2-methoxy-ethyl)-1H-pyrazol-4-yl]-benzoyl}-piperidin-1-yl)-4-oxo-butyl]-3H-quinazolin-4-one] | 7.3e-09 | 300 |  |  | 5.8e-11 | 1.2e-10 |
| O=C(c1ccc(-c2cnn(CCN3CCCC3)c2)cc1)C1CCN(C(=O)CCCc2nc3ccccc3c(=O)[nH]2)CC1 [Compound A12, 2-[4-oxo-4-(4-{4-[1-(2-pyrrolidin-1-yl-ethyl)-1H-pyrazol-4-yl]-benzoyl}-piperidin-1-yl)-butyl]-3H-quinazolin-4-one] | 6.8e-09 | 650 |  |  | 2.5e-10 | 3.5e-10 |
| COc1ccc(C(=O)C2CCN(C(=O)CCCc3nc4ccccc4c(=O)[nH]3)CC2)cc1C [Compound A13, 2-[4-[4-(4-methoxy-3-methyl-benzoyl)-1-piperidyl]-4-oxo-butyl]-3H-quinazolin-4-one] | 8.6e-10 | 990 |  |  | 1e-10 | 1.3e-10 |
| COc1ccc(C(=O)C2CCN(C(=O)CCCc3nc4c(F)cc(F)cc4c(=O)[nH]3)CC2)cc1C [Compound A14, 6,8-difluoro-2-[4-[4-(4-methoxy-3-methyl-benzoyl)-1-piperidyl]-4-oxo-butyl]-3H-quinazolin-4-one] | 3.3e-09 | 1000 |  |  | 8.6e-11 | 1.6e-10 |
| COc1ccc(C(=O)C2CCN(C(=O)CCCc3nc4c(C)cc(F)cc4c(=O)[nH]3)CC2)cc1C [Compound A15, 6-fluoro-2-[4-[4-(4-methoxy-3-methyl-benzoyl)-1-piperidyl]-4-oxo-butyl]-8-methyl-3H-quinazolin-4-one] | 1.4e-09 | 64 |  |  | 8.8e-11 | 7.4e-11 |
| COc1ccc(C(=O)C2CCN(C(=O)CCCc3nc4ccccc4c(=O)[nH]3)CC2)cn1 [Compound A16, 2-{4-[4-(6-Methoxy-pyridine-3-carbonyl)-piperidin-1-yl]-4-oxo-butyl}-3H-quinazolin-4-one] | 1e-08 | 2700 |  |  | 1.1e-09 | 7.5e-10 |
| N#Cc1ccc(OC2CCN(C(=O)CCCc3nc4ccccc4c(=O)[nH]3)CC2)cc1 [Compound A17, 4-{1-[4-(4-Oxo-3,4-dihydro-quinazolin-2-yl)-butyryl]-piperidin-4-yloxy}-benzonitrile] | 7.2e-07 | 680 | 1.5e-07 | 7.9e-08 |  |  |
| O=C(c1ccc(F)cc1)C1CCN(C(=O)CCCc2nc3ccccc3c(=O)[nH]2)CC1 [Compound A18, 2-{4-[4-(4-Fluoro-benzoyl)-piperidin-1-yl]-4-oxo-butyl}-3H-quinazolin-4-one] | 2.1e-08 | 2100 |  |  | 7e-10 | 6.1e-10 |
| O=C(c1ccc(F)cc1)C1CCN(C(=O)CCCc2nc3ccc(F)cc3c(=O)[nH]2)CC1 [Compound A23, 6-Fluoro-2-{4-[4-(4-fluoro-benzoyl)-piperidin-1-yl]-4-oxo-butyl}-3H-quinazolin-4-one] |  | 650 |  |  | 8.4e-10 | 5.9e-10 |
| CC(C)(O)c1ccc(C(=O)C2CCN(C(=O)CCCc3nc4c(F)cccc4c(=O)[nH]3)CC2)cc1 [Compound A37, 8-Fluoro-2-(4-{4-[4-(1-hydroxy-1-methyl-ethyl)-benzoyl]-piperidin-1-yl}-4-oxo-butyl)-3H-quinazolin-4-one] |  | 4300 |  |  | 1.1e-08 |  |
| CC(C)(O)c1ccc(C(=O)C2CCN(C(=O)CCCc3nc4ccccc4c(=O)[nH]3)CC2)cc1 [Compound A38, 2-(4-{4-[4-(1-Hydroxy-1-methyl-ethyl)-benzoyl]-piperidin-1-yl}-4-oxo-butyl)-3H-quinazolin-4-one] |  | 430 |  |  | 2.2e-08 | 8.4e-09 |
| CC(C)(O)c1ccc(C(=O)C2CCN(C(=O)CCCc3nc4ccc(F)cc4c(=O)[nH]3)CC2)cc1 [Compound A39, 6-Fluoro-2-(4-{4-[4-(1-hydroxy-1-methyl-ethyl)-benzoyl]-piperidin-1-yl}-4-oxo-butyl)-3H-quinazolin-4-one] |  | 270 |  |  | 9.6e-09 |  |
| Cn1ccnc1C(=O)C1CCN(C(=O)CCCc2nc3ccccc3c(=O)[nH]2)CC1 [Compound A40, 2-{4-[4-(1-methyl-1H-imidazole-2-carbonyl)-piperidin-1-yl]-4-oxo-butyl}-3H-quinazolin-4-one] |  | 3200 | 8.2e-08 |  |  | 6.1e-08 |
